# Results taken from PubChem BioAssay (NCI).
# “And” between values parts separate entries of the source, which are not always exact repeats. Identical values can stand only once.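 Step 1: Grow cells in 96-well plates. Step 2: Expose to compound for 48 hours at 5 concentrations. Step 3: Interpolate endpoints linearly; if unreached, use highest concentration. Here, GI50 denotes the concentration required for 50% inhibition of growth. TGI marks complete inhibition of growth.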
# Tests used:
# Experiment in all cases: NCI anticancer screen, dose series, 48 h
# [1] = system: OVCAR-8 ovarian
# [2] = system: UO-31 renal
# [3] = system: SF-539 CNS
# [4] = system: SNB-75 CNS
# [5] = system: PC-3 prostate
# [6] = system: NCI-H226 lung
# [7] = system: HT29 colon
# [8] = system: SR leukemia
# [9] = system: U251 CNS
# [10] = system: K-562 leukemia
Structure (SMILES),GI50 [1] [µM],TGI [1] [µM],GI50 [2],TGI [2] [µM],GI50 [3] [µM],TGI [3] [µM],GI50 [4],TGI [4] [µM],GI50 [5] [µM],TGI [5] [µM],GI50 [6] [µM],TGI [6] [µM],GI50 [7] [µM],TGI [7] [µM],GI50 [8] [µM],TGI [8] [µM],GI50 [9] [µM],TGI [9] [µM],GI50 [10] [µM],TGI [10] [µM]
O=C(CN1CCN(c2ccccn2)CC1)Nc1ccc(Cl)cc1C(=O)c1ccccc1Cl,> 100,> 100,9.38 µM,> 100,45.9,> 100,> 100 µM,> 100,6,> 100,> 100,> 100,8.92,> 100,6.63,> 100,> 100,> 100,3.55,> 100
Nc1ncnc2c1ncn2C1OC(C(=O)OCCO)C(O)C1O (centres undefined),,> 100,,> 100,,> 100,,> 100,,> 100,,> 100,,> 100,,> 100,,> 100,,> 100
NS(=O)(=O)c1ccc(N=Nc2c(=O)[nH]c3ccc4[nH]cccc4c23)cc1,0.342,> 25,1.68 µM,> 25,0.295,1.46,0.404 µM,1.3,0.583,> 25,0.317,3.06,0.875,> 25,0.147,0.652,0.313,> 25,0.721,> 25
C[C@H](c1ccc(Cl)cc1[N+](=O)[O-])N1C(=O)c2cc(I)ccc2NC(=O)[C@H]1c1ccc(Cl)cc1,> 100,> 100,2.54 µM,> 100,> 100,> 100,> 100 µM,> 100,4.86,> 100,> 100,> 100,> 100,> 100,28,> 100,> 100,> 100,77,> 100
O=C(O)CSc1nnc2c3ccccc3c3ccccc3c2n1,,> 100,,> 100,,> 100,,> 100,,> 100,,> 100,,> 100,,> 100,,> 100,,> 100
COc1cc[nH]c1/C=C1\C(=O)Nc2ccc([N+](=O)[O-])c(N3CC[C@@H](O)C3)c21,0.278,3.46,0.267 µM,3.44,0.102,0.386,0.0931 µM,0.989,0.235,2.15,0.169,1.69,0.209,1.56,0.0536,0.185,0.172,2.07,0.577,7.57
C(=NCCN=Cc1cccc2ccccc12)c1cccc2ccccc12,,> 100,,> 100,,> 100,,> 100,,,,> 100,,> 100,,> 100,,> 100,,> 100
CC(=O)Nc1ccc(OCC(O)CO)cc1 (centres undefined),,> 100,,> 100,,> 100,,> 100,,,,> 100,,> 100,,> 100,,> 100,,> 100
COC(=O)[C@]1(C)CC[C@]2(C)CC[C@]3(C)C(=CC(=O)[C@@H]4[C@@]5(C)CCC(=O)NC(C)(C)[C@@H]5CC[C@]43C)[C@@H]2C1,29.2,> 100,16.9 µM,33.3,14.6,28.6,25.5 µM,> 100,4.69,21.3,14.9,35.4,11.9,80.5,15.5,50.5,23.3,89.3,7.4,66.5
NC(N)=N/N=C/c1ccc(Br)cc1,5.3,21.2,5.72 µM,19.7,2.33,6.35,1.6 µM,5.76,4.57,24,5.15,17.4,3.03,11.3,1.84,47,3.58,15.4,3.72,> 100
CCOc1ccccc1NC(=O)C(=O)c1c(O)c2ccc(O)cc2oc1=O,,> 100,,> 100,,> 100,,> 100,,,,> 100,,> 100,,> 100,,> 100,,> 100
COc1ccc(-c2cc3c(N)ncnc3o2)cc1,> 25,> 25,12.4 µM,> 25,> 25,> 25,24.9 µM,> 25,> 25,> 25,> 25,> 25,> 22.7,> 25,> 25,> 25,> 25,> 25,> 25,> 25
NC(=S)N=Nc1c(O)[nH]c2ccccc12,234,846,39 µM and 126 µM,504,170,361,91.7 µM and 174 µM,419,172,392,169,307,652,> 1000,98.2,,188,404,,> 1000
CC(C)CC1NC(=O)C(C(C)C)NC(=O)CC(C)COC(=O)C(CC(C)C)N(C)C(=O)C(C(C)C)NC(=O)C(C(C)C)OC1=O (centres undefined),,> 50,,> 50,,27.5,,30.2,,> 50,,> 50,,> 50,,> 50,,> 50,,> 50
N#CC1C(=O)NC(=O)C(C#N)C1c1ccc(Cl)c(Cl)c1 (centres undefined),,> 100,,33.2,,42.6,,74.2,,> 100,,,,33,,41.6,,51.5,,85.8
